From patent US7378375B1, “Substituted pyridine herbicides” (Syngenta Crop Protection, Inc., priority 2000, dated 2008)

Row | SMILES | melting point [°C]
1 | COCc1nc(C(F)(F)F)ccc1C(=O)c1cnn(C)c1O [1.019] | 32 to 34
2 | CCOCc1nc(C(F)(F)F)ccc1C(=O)c1cnn(C)c1O [1.020] | 32 to 33
3 | CCOCCOCc1nc(C(F)(F)F)ccc1C(=O)c1cnn(C)c1O [1.022] | 38 to 39
4 | COc1ccccc1OCc1nc(C(F)(F)F)ccc1C(=O)C1=C(O)C2CCC(C2)C1=O (centres unmarked) [1.028] | 113 to 115
5 | COC(=O)COCc1nc(C(F)(F)F)ccc1C(=O)C1=C(O)C2CCC(C2)C1=O (centres unmarked) [1.031] | 106 to 107
6 | CC(=O)OCCOCc1nc(C(F)(F)F)ccc1C(=O)C1=C(O)C2CCC(C2)C1=O (centres unmarked) [1.050] | 90 to 93
7 | CCCOCCOCc1nc(C(F)(F)F)ccc1C(=O)C1=C(O)C2CCC(C2)C1=O (centres unmarked) [1.052] | 41 to 43
8 | O=C(OCCOCc1nc(C(F)(F)F)ccc1C(=O)C1=C(OC(=O)c2ccccc2)C2CCC(C2)C1=O)c1ccccc1 (centres unmarked) [1.055] | 96 to 98
9 | CC(C)(C)C(=O)OC1=C(C(=O)c2ccc(C(F)(F)F)nc2COCCO)C(=O)C2CCC1C2 (centres unmarked) [1.059] | 79 to 81
10 | O=C(C1=C(O)C2CCC(C2)C1=O)c1ccc(C(F)(F)F)nc1COC1COC1 (centres unmarked) [1.065] | 102 to 105
11 | O=C(C1=C(O)C2CCC(C2)C1=O)c1ccc(C(F)(F)F)nc1COCCOCC(F)(F)F (centres unmarked) [1.066] | 40 to 44
12 | O=C(C1=C(O)C2CCC(C2)C1=O)c1ccc(C(F)(F)F)nc1COCc1ccccc1 (centres unmarked) [1.068] | 68 to 69
13 | O=C(C1=C(O)C2CCC(C2)C1=O)c1ccc(C(F)(F)F)nc1COCCCOCc1ccccc1 (centres unmarked) [1.069] | 78 to 80
14 | COCCOCc1nc(C(F)(F)F)ccc1C(=O)C1C(=O)CCC2(CC2)C1=O (centres unmarked) [1.070] | 40 to 42
15 | O=C(c1ccc(C(F)(F)F)nc1COCC1CCCO1)C1C(=O)C2CCC(C2)C1=O (centres unmarked) [1.073] | 46 to 47
16 | CC1(C)C(=O)C(C(=O)c2ccc(C(F)(F)F)nc2COCc2ccccc2)C(=O)C(C)(C)C1=O [1.076] | 75 to 76
17 | O=C(c1ccc(C(F)(F)F)nc1COCCCl)C1C(=O)C2CCC(C2)C1=O (centres unmarked) [1.080] | 63 to 64
18 | COCCOCc1nc(C(F)(F)F)ccc1C(=O)C1=C(O)CC(C)CC1=O (centres unmarked) [1.082] | 76 to 78
19 | CN(Cc1nc(C(F)(F)F)ccc1C(=O)C1=C(O)C2CCC(C2)C1=O)S(C)(=O)=O (centres unmarked) [1.090] | 149 to 150
20 | CN(Cc1nc(C(F)(F)F)ccc1C(=O)c1cnn(C)c1O)S(C)(=O)=O [1.091] | 110 to 112
